Experimental data: patent US12152035B2, “Androgen receptor binding molecule and use thereof” (Industrial Technology Research Institute, priority 2020, dated 2024)

Key:
Assay type in all cases: cell-based
VCaP cells = experiment: Cytotoxicity assay (AlamarBlue, 72 hours); settings: 72 hours treatment, concentration not given
Outline: (§1)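 CWR22Rv1 or VCaP cells in RPMI-1640 with 10% FBS were seeded at 1×10^4 cells/well. Next day they were treated with compound, test samples at 100, 10, 1 and 0.1 μM, giving 1% DMSO final. After 72 h, AlamarBlue was added for 4 h, fluorescence was read at Ex/Em 560/590 nm, and % cytotoxicity was calculated.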

CWR22RV1 cells = experiment: Cytotoxicity assay (AlamarBlue, 72 hours); settings: 72 hours treatment, concentration not given
Outline: as §1

[1] = system: full-length androgen receptor; experiment: Western blot: degradation of full-length androgen receptor in CWR22RV1 cells; settings: overnight
Outline: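 CWR22Rv1 cells (5×10^5 per well) seeded overnight in RPMI with 10% FBS at 37 °C, 5% CO2, then given fresh medium and compound at various concentrations overnight. Lysates analysed by Western blot for full-length AR and AR-V7, with GAPDH as loading control.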

[2] = compound concentration 0.1 (unit not given)
[3] = compound concentration 1 (unit not given)
[4] = compound concentration 10 (unit not given)

Row | Structure (SMILES) | Cytotoxicity, VCaP cells (cell viability %) (VCaP cells) | Cytotoxicity, CWR22RV1 cells (cell viability %) (CWR22RV1 cells) | Degradation ability for full-length androgen receptor (residual rate %) [1, 2] | Degradation ability for full-length androgen receptor (residual rate %) [1, 3] | Degradation ability for full-length androgen receptor (residual rate %) [1, 4]
1 | CC1(C)[C@H](NC(=O)c2ccc(C#CC3CCN(c4cccc5c4C(=O)N(C4CCC(=O)NC4=O)C5=O)CC3)cc2)C(C)(C)[C@H]1Oc1ccc2nnc(C(F)(F)F)n2n1 (stereo partly shown) [Compound 46, 4-((1-(2-(2,6-dioxopiperidin-3-yl)-1,3-dioxoisoindolin-4-yl)piperidin-4-yl)ethynyl)-N-((1r,3r)-2,2,4,4-tetramethyl-3-((3-(trifluoromethyl)-[1,2,4]triazolo[4,3-b]pyridazin-6-yl)oxy)cyclobutyl)benzamide] | ++ (40-60% : ++) | − (<80% : −) | ++ (40-60%: ++) | ++ (40-60%: ++) | − (>80%; −)
2 | O=C1CCC(N2C(=O)c3cccc(N4CCN(c5ccc(C(=O)N[C@H]6CC[C@H](Oc7ccc8nnc(C(F)(F)F)n8n7)CC6)cn5)CC4)c3C2=O)C(=O)N1 (stereo partly shown) [Compound 47, 6-(4-(2-(2,6-dioxopiperidin-3-yl)-1,3-dioxoisoindolin-4-yl)piperazin-1-yl)-N-((1r,4r)-4-((3-(trifluoromethyl)-[1,2,4]triazolo[4,3-b]pyridazin-6-yl)oxy)cyclohexyl)nicotinamide] | ++ (40-60% : ++) | − (<80% : −) | ++ (40-60%: ++) | +++ (<40%: +++) | + (60-80%: +)
3 | O=C1CCC(N2C(=O)c3cccc(N4CCC(CN5CCN(c6ccc(C(=O)N[C@H]7CC[C@H](Oc8ccc9nnc(C(F)(F)F)n9n8)CC7)cn6)CC5)CC4)c3C2=O)C(=O)N1 (stereo partly shown) [Compound 48, 6-(4-((1-(2-(2,6-dioxopiperidin-3-yl)-1,3-dioxoisoindolin-4-yl)piperidin-4-yl)methyl)piperazin-1-yl)-N-((1r,4r)-4-((3-(trifluoromethyl)-[1,2,4]triazolo[4,3-b]pyridazin-6-yl)oxy)cyclohexyl)nicotinamide] | − (<80% : −) | − (<80% : −) | − (>80%; −) | − (>80%; −) | − (>80%; −)
4 | CC1(C)C(NC(=O)c2ccc(C#CC3CCN(C(=O)CNc4cccc5c4C(=O)N(C4CCC(=O)NC4=O)C5=O)CC3)cc2)C(C)(C)C1Oc1ccc2nnc(C(F)(F)F)n2n1 (stereo not shown) [Compound 49, 4-((1-((2-(2,6-dioxopiperidin-3-yl)-1,3-dioxoisoindolin-4-yl)glycyl)piperidin-4-yl)ethynyl)-N-((1r,3r)-2,2,4,4-tetramethyl-3-((3-(trifluoromethyl)-[1,2,4]triazolo[4,3-b]pyridazin-6-yl)oxy)cyclobutyl)benzamide] | +++ (<40% : +++) | ++ (40-60% : ++) | ++ (40-60%: ++) | ++ (40-60%: ++) | − (>80%; −)
5 | O=C1CCC(N2C(=O)c3cccc(NCC(=O)N4CCC(N5CCC(C#Cc6ccc(C(=O)Nc7ccc(C8CCN(C9=Nn%10c(nnc%10C(F)(F)F)CC9)CC8)cc7)nc6)CC5)CC4)c3C2=O)C(=O)N1 (stereo not shown) [Compound 51, 5-((1′-((2-(2,6-dioxopiperidin-3-yl)-1,3-dioxoisoindolin-4-yl)glycyl)-[1,4′-bipiperidin]-4-yl)ethynyl)-N-(4-(1-(3-(trifluoromethyl)-7,8-dihydro-[1,2,4]triazolo[4,3-b]pyridazin-6-yl)piperidin-4-yl)phenyl)picolinamide] | +++ (<40% : +++) | +++ (<40% : +++) | − (>80%; −) | − (>80%; −) | + (60-80%: +)
